Measurements as given in paper PMC10892375, “Determination of the Cannabinoid CB1 Receptor’s Positive Allosteric Modulator Binding Site through Mutagenesis Studies” (Pharmaceuticals, 2024).

Experiments:
Format in all cases: cell-based
hCB1 mutant Y172A^2.59 = biological target: T1, hCB1 mutant Y172A^2.59 (Homo sapiens, UniProt P21554, Y172A); experiment: pIRES G protein dissociation BRET assay, Y172A mutant; settings: for Increase in the potency of CP55940-induced G protein dissociation: 10 μM allosteric ligand; for G protein dissociation, AUC of 10 μM compound (maximal response): 10 μM ligand alone
T1 construct: expressed in transfected cells; host or cells: HEK293
T1 sequence (P21554 whole entry Y172A): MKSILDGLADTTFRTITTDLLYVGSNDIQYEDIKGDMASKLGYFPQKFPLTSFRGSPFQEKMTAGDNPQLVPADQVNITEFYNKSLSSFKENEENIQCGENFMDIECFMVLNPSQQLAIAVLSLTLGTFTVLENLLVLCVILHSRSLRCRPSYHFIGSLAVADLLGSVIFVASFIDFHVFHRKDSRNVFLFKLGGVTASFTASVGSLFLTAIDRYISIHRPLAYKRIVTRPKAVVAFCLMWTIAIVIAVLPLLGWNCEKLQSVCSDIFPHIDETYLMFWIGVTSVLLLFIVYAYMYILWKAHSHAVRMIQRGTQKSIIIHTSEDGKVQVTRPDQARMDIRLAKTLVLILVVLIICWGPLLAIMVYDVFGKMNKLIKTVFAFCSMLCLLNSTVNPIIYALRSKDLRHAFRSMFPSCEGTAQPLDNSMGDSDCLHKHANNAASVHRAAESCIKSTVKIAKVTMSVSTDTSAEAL
Experimental: (§1) Mutagenesis studies using the pIRES G protein dissociation assay were performed using human embryonic kidney 293 (HEK293) wild-type cells transiently transfected with pplss-3HA-hCB1 [31] or modified receptor. All cells were cultured in Dulbecco’s Modified Eagle’s Medium (DMEM) supplemented with 10% fetal bovine serum (FBS), grown in […] vented-cap flasks, and maintained in a 37° C incubator at 5% CO2.
(§2) Mutants of pplss-3HA-hCB1 (WT, pEF-V4-HisA (pEF4a) construct) were generated using a modified QuikChange® (Stratagene, San Diego, CA, USA) site-directed mutagenesis approach using KAPA HiFi Hotstart Polymerase (KAPA Biosystems, Roche, Basel, Switzerland). Briefly, single-stranded primers used to modify one or two base pairs within the target amino acid using PCR were purchased from Integrated DNA Technologies (IDT, Coralville, IA, USA). All pplss-hCB1 mutants were generated using the pplss-3HA-hCB1 pEF4a as parental DNA. PCR products were generated using recommended cycling conditions and treated with Dpn1 (New England Biolabs, Ipswich, MA, USA) overnight at 37° C to digest methylated parental DNA. PCR products were electrophoresed and run on an agarose gel (1% (w.v^−1) agarose, HydraGene, Piscataway, NJ, USA) containing 0.25 μg/mL ethidium bromide (Sigma-Aldrich, St. Louis, MO, USA). Gels were run in 40 mM TRIS-acetate buffer containing […] (pH 8.3) at 100 V for 30 min, maximum current and included a 1kb+ DNA ladder (Invitrogen, Thermo Fisher Scientific, Carlsbad, CA, USA) for reference. Gels were imaged using an UVTech Alliance Q9 Mini transilluminator (UVTech Alliance, Cambridge, UK). Digested products were then used to transform NEB 5α competent E. coli cells in accordance with manufacturer’s instructions. Briefly, transformed PCR products were grown overnight on 8.5 mL Luria Broth agar plates (containing 100 μg/mL ampicillin) at 37° C. Single bacterial colonies were picked and inoculated in Luria Broth (containing 100 μg/mL ampicillin) and grown overnight in a shaking incubator at 37° C. Plasmids were then harvested and purified using a Qiagen miniprep kit (Qiagen, Hilden, Germany) and validated using sequencing (Genetics Analysis Service, University of Otago, Dunedin, New Zealand).
(§3) Dissociation of the G protein heterotrimer, specifically Gαi1, Gβ1, and Gγ2, was investigated using a bioluminescence resonance energy transfer (BRET) assay with the pIRES biosensor first described by and adapted by.
(§4) Briefly, 3 × 10^6 WT HEK293 cells were seeded into 10 cm culture dishes (Corning, Corning, NY, USA; one dish for the control receptor and one for each modified receptor) and incubated at 37 °C for 24 h to gain 50–60% confluency. Culture medium was then replaced and transfection mixtures containing 3 μg pIRES vector and 1 μg receptor (either pplss-hCB1 or modified receptor) were prepared (4 μg total DNA). Plasmids were initially diluted in sterile Milli-Q water before being diluted in OptiMEM reduced serum medium (Thermo Fisher Scientific, Waltham, MA, USA) and combined with […] polyethylenimine (PEI)-max (1:9 DNA:PEI-max ratio) and incubated at room temperature for 20 min. Transfection mixtures were then added to cells via dropwise addition, and cells were incubated at 37 °C for 24 h. Transfected cells were lifted and plated at 50,000 cells/well into poly-d-lysine (PDL; Sigma-Aldrich) coated white 96-well CulturPlates (PerkinElmer, Waltham, MA, USA) and incubated for a further 24 h at 37 °C.
(§5) To assay, the culture medium was aspirated and cells were washed with phosphate buffered saline (PBS) and replaced with BRET assay medium (phenol red free DMEM containing 25 mM HEPES and supplemented with 1 mg/mL bovine serum albumin; BSA, MP Biomedicals, Auckland, New Zealand) for 30 min prior to drug addition (serum starve). Drugs were prepared at 10 × concentration in BRET assay medium, combined in a polypropylene V-bottom plate, and incubated at 37° C prior to drug stimulation.

hCB1 mutant S173A^2.60 = biological target: T2, hCB1 mutant S173A^2.60 (Homo sapiens, UniProt P21554, S173A); experiment: pIRES G protein dissociation BRET assay, S173A mutant; settings: 10 μM ligand alone
T2 construct: expressed in transfected cells; host or cells: HEK293
T2 sequence (P21554 whole entry S173A): as the sequence (P21554 whole entry Y172A) above, with A172Y, S173A counted along it
Experimental: as §1, §2, §3, §4, §5

hCB1 mutant F191A^3.27 = biological target: T3, hCB1 mutant F191A^3.27 (Homo sapiens, UniProt P21554, F191A); experiment: pIRES G protein dissociation BRET assay, F191A mutant; settings: for G protein dissociation, AUC of 10 μM compound (maximal response): 10 μM ligand alone; for Allosteric agonism: G protein dissociation in the absence of an orthosteric ligand: 10 μM, result in words
T3 construct: expressed in transfected cells; host or cells: HEK293
T3 sequence (P21554 whole entry F191A): as the sequence (P21554 whole entry Y172A) above, with A172Y, F191A counted along it
Experimental: as §1, §2, §3, §4, §5

hCB1 mutant I245A^4.54 = biological target: T4, hCB1 mutant I245A^4.54 (Homo sapiens, UniProt P21554, I245A); experiment: pIRES G protein dissociation BRET assay, I245A mutant; settings: 10 μM ligand alone
T4 construct: expressed in transfected cells; host or cells: HEK293
T4 sequence (P21554 whole entry I245A): as the sequence (P21554 whole entry Y172A) above, with A172Y, I245A counted along it
Experimental: as §1, §2, §3, §4, §5

hCB1 mutant R148A^12.51 = biological target: T5, hCB1 mutant R148A^12.51 (Homo sapiens, UniProt P21554, R148A); experiment: pIRES G protein dissociation BRET assay, R148A mutant; settings: for Increase in the potency of CP55940-induced G protein dissociation: 10 μM allosteric ligand; for G protein dissociation, AUC of 10 μM compound (maximal response): 10 μM ligand alone
T5 construct: expressed in transfected cells; host or cells: HEK293
T5 sequence (P21554 whole entry R148A): as the sequence (P21554 whole entry Y172A) above, with R148A, A172Y counted along it
Experimental: as §1, §2, §3, §4, §5

hCB1 mutant H154A^2.41 = biological target: T6, hCB1 mutant H154A^2.41 (Homo sapiens, UniProt P21554, H154A); experiment: pIRES G protein dissociation BRET assay, H154A mutant; settings: 10 μM ligand alone
T6 construct: expressed in transfected cells; host or cells: HEK293
T6 sequence (P21554 whole entry H154A): as the sequence (P21554 whole entry Y172A) above, with H154A, A172Y counted along it
Experimental: as §1, §2, §3, §4, §5

hCB1 mutant K232A^4.41 = biological target: T7, hCB1 mutant K232A^4.41 (Homo sapiens, UniProt P21554, K232A); experiment: pIRES G protein dissociation BRET assay, K232A mutant; settings: 10 μM ligand alone
T7 construct: expressed in transfected cells; host or cells: HEK293
T7 sequence (P21554 whole entry K232A): as the sequence (P21554 whole entry Y172A) above, with A172Y, K232A counted along it
Experimental: as §1, §2, §3, §4, §5

hCB1 mutant L209A^3.45 = biological target: T8, hCB1 mutant L209A^3.45 (Homo sapiens, UniProt P21554, L209A); experiment: pIRES G protein dissociation BRET assay, L209A mutant; settings: 10 μM ligand alone
T8 construct: expressed in transfected cells; host or cells: HEK293
T8 sequence (P21554 whole entry L209A): as the sequence (P21554 whole entry Y172A) above, with A172Y, L209A counted along it
Experimental: as §1, §2, §3, §4
as §5, with “stimulation. […]” for “stimulation.”

hCB1 mutant R220A^3.56 = biological target: T9, hCB1 mutant R220A^3.56 (Homo sapiens, UniProt P21554, R220A); experiment: pIRES G protein dissociation BRET assay, R220A mutant; settings: 10 μM ligand alone
T9 construct: expressed in transfected cells; host or cells: HEK293
T9 sequence (P21554 whole entry R220A): as the sequence (P21554 whole entry Y172A) above, with A172Y, R220A counted along it
Experimental: as §1, §2, §3, §4, §5

hCB1 mutant L404A^8.50 = biological target: T10, hCB1 mutant L404A^8.50 (Homo sapiens, UniProt P21554, L404A); experiment: pIRES G protein dissociation BRET assay, L404A mutant; settings: 10 μM ligand alone
T10 construct: expressed in transfected cells; host or cells: HEK293
T10 sequence (P21554 whole entry L404A): as the sequence (P21554 whole entry Y172A) above, with A172Y, L404A counted along it
Experimental: as §1, §2, §3, §4, §5

| Compound | Increase in the potency of CP55940-induced G protein dissociation (hCB1 mutant Y172A^2.59) | G protein dissociation, AUC of 10 μM compound (maximal response) (hCB1 mutant Y172A^2.59) | G protein dissociation, AUC of 10 μM compound (maximal response) (hCB1 mutant S173A^2.60) | G protein dissociation, AUC of 10 μM compound (maximal response) (hCB1 mutant F191A^3.27) | Allosteric agonism: G protein dissociation in the absence of an orthosteric ligand (hCB1 mutant F191A^3.27) | G protein dissociation, AUC of 10 μM compound (maximal response) (hCB1 mutant I245A^4.54) | Increase in the potency of CP55940-induced G protein dissociation (hCB1 mutant R148A^12.51) | G protein dissociation, AUC of 10 μM compound (maximal response) (hCB1 mutant R148A^12.51) | G protein dissociation, AUC of 10 μM compound (maximal response) (hCB1 mutant H154A^2.41) | G protein dissociation, AUC of 10 μM compound (maximal response) (hCB1 mutant K232A^4.41) | G protein dissociation, AUC of 10 μM compound (maximal response) (hCB1 mutant L209A^3.45) | G protein dissociation, AUC of 10 μM compound (maximal response) (hCB1 mutant R220A^3.56) | G protein dissociation, AUC of 10 μM compound (maximal response) (hCB1 mutant L404A^8.50) |
| --- | --- | --- | --- | --- | --- | --- | --- | --- | --- | --- | --- | --- | --- |
| O=[N+]([O-])C[C@H](c1ccccc1)c1c(-c2ccccc2)[nH]c2ccccc12 [GAT228] | less than 0.5 log units | −133.4 ± 9.8 | −105.5 ± 7.6 | 19.5 ± 11.9 | abolished | −90.3 ± 8.5 | less than 0.5 log units | −102.7 ± 11.8 | −101.6 ± 6.9 | −94.0 ± 10.5 | −19.0 ± 3.3 | −85.2 ± 13.6 | −63.2 ± 5.6 |
| O=[N+]([O-])C[C@@H](c1ccccc1)c1c(-c2ccccc2)[nH]c2ccccc12 [GAT229] | less than 0.5 log units | −207.0 ± 7.1 | −137.3 ± 4.8 | 22.1 ± 6.4 | abolished | −121.6 ± 8.0 | less than 0.5 log units | −148.5 ± 7.7 | −154.6 ± 7.8 | −134.5 ± 7.9 | −25.1 ± 3.5 | −102.9 ± 9.9 | −88.9 ± 6.2 |
